Columns and labels:
human alpha-thrombin [1] = target: T1, human alpha-thrombin (Homo sapiens, UniProt P00734); assay: in vitro thrombin inhibition assay (Ki, chromogenic substrate Pefachrome t-PA); type: biochemical; settings: human alpha-thrombin 0.2 nM; steady state velocities over 60 minutes; pH 7.5
Description: The ability of the compounds of Example 11 and 14 to act as an inhibitor of thrombin catalytic activity was assessed by determining the compounds, inhibition constant, Ki.
Enzyme activity was determined using the chromogenic substrate Pefachrome t-PA (CH3 SO2 -D-hexahydrotyrosine-glycyl-L-arginine-p-Nitroanilide), obtained from Pentapharm Ltd. The substrate was reconstituted in deionized water prior to use. Purified human alpha-thrombin (3000U/mg specific activity) was obtained from Enzyme Research Laboratories, Inc. The buffer used for all assays was HBSA (10 mM HEPES, pH 7.5, 150 mM sodium chloride, 0.1% bovine serum albumin).
At time zero, 50 microliters of alpha-thrombin diluted in HBSA were added to the wells, yielding a final concentration of 0.2 nM in a total volume of 250 microliters. Velocities of chromogenic substrate hydrolysis which occurred over 60 minutes were measured by the change in absorbance at 405 nm using a Thermo Max® Kinetic Microplate Reader. […] The extent of substrate hydrolysis was less than 5% over the course of this assay.

human alpha-thrombin [2] = target: T1, human alpha-thrombin; assay: Thrombin (fIIa) IC50 assay for specificity determination; type: biochemical; settings: 30-minute incubation
Description: (§1) The ability of compounds of this invention to act as a selective inhibitor of thrombin catalytic activity was assessed by determining the concentration of test compound which inhibited the activity of this enzyme by 50%, (IC50), and comparing this value to that determined for some or all of the following related serine proteases: recombinant tissue plasminogen activator (rt-PA), plasmin, activated protein C (aPC), chymotrypsin and trypsin.
(§2) The buffer used for all assays was HBSA (10 mM HEPES, pH 7.5, 150 mM sodium chloride, 0.1% bovine serum albumin). The assay for IC50 determinations was conducted by combining in appropriate wells of a Corning microtiter plate, 50 microliters of HBSA, 50 microliters of the test compound at a specified concentration (covering a broad concentration range) diluted in HBSA (or HBSA alone for Vo (uninhibited velocity) measurement), and 50 microliters of the enzyme diluted in HBSA. […] The initial velocity of chromogenic substrate hydrolysis was measured by the change in absorbance at 405 nm using a Thermo Max® Kinetic Microplate Reader over a 5 minute period in which less than 5% of the added substrate was utilized. […]
Enzyme activity was determined using the chromogenic substrate, Pefachrome t-PA (CH3 SO2 -D-hexahydrotyrosine-glycyl-L-Arginine-p-nitroaniline, obtained from Pentapharm Ltd.). […]

rt-PA = target: T2, rt-PA (Homo sapiens, UniProt P00750); assay: Recombinant tissue plasminogen activator (rt-PA) IC50 assay; type: biochemical; settings: maximal concentration 2500 nM
T2 construct: purchased Genentech Inc. Activase
T2 sequence (P00750 36-562): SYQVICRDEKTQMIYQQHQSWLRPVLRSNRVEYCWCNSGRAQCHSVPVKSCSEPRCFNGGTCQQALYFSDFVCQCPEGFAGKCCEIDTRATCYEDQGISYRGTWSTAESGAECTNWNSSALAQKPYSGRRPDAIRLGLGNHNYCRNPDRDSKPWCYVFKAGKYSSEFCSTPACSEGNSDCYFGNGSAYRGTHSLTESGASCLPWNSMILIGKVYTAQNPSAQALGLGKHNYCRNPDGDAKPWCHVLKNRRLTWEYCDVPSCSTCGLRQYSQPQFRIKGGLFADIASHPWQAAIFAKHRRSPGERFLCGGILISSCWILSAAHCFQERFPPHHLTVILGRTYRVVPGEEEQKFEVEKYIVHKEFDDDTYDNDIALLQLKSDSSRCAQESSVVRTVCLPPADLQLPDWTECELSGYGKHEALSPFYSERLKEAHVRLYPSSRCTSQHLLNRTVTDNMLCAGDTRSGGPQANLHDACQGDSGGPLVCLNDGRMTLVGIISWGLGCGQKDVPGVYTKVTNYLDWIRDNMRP
Description: as §1, §2
rt-PA catalytic activity was determined using the substrate, Pefachrome t-PA (CH3 SO2 -D-hexahydrotyrosine-glycyl-L-arginine-p-nitroanilide, obtained from Pentapharm Ltd.). […]

Plasmin = Plasmin (Homo sapiens, UniProt P00747); assay: Plasmin IC50 assay; type: biochemical; settings: maximal concentration 2500 nM
Sequence of Plasmin (P00747 581-810 limits assumed): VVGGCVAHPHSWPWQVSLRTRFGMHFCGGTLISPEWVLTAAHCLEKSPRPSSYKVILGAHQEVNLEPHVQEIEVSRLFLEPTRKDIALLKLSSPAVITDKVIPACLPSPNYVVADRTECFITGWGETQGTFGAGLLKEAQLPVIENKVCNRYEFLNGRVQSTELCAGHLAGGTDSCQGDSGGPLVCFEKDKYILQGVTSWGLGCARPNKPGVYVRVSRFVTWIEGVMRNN
Sequence of Plasmin (P00747 97-580 limits assumed): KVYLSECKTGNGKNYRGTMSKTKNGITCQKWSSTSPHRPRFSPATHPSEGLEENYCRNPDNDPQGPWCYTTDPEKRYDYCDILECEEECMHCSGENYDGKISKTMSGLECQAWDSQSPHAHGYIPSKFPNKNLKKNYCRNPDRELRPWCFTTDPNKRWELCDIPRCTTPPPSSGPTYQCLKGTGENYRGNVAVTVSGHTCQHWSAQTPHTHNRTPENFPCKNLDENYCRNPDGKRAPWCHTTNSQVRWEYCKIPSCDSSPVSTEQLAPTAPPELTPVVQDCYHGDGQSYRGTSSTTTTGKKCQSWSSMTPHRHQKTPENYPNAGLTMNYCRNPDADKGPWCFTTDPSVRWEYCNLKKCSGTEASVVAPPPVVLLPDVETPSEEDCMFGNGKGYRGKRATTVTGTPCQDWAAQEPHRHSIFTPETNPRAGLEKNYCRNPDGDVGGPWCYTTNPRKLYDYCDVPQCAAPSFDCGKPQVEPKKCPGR
Description: as §1, §2
Plasmin catalytic activity was determined using the chromogenic substrate, S-2366 (L-pyro-Glu-Pro-Arg-pNa.HCl), which was obtained from DiaPharma Group. […]

aPC = target: T3, aPC (Homo sapiens, UniProt P04070); assay: Activated protein C (aPC) IC50 assay; type: biochemical; settings: maximal concentration 2500 nM
T3 construct: purchased Hematologic Technologies, Inc
T3 sequence (P04070 212-450 limits assumed): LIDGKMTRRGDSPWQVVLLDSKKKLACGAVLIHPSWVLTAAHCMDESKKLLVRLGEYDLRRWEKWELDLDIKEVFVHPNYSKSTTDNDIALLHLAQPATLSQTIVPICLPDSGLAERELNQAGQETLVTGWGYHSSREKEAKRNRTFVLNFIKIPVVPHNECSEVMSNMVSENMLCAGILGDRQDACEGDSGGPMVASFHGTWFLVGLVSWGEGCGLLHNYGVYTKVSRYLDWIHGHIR
T3 sequence (P04070 43-197 limits assumed): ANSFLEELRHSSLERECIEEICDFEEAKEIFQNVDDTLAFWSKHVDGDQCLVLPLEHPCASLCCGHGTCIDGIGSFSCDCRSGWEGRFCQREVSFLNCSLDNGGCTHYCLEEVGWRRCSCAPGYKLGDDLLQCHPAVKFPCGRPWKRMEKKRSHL
Description: as §1, §2
aPC catalytic activity was determined using the chromogenic substrate, Pefachrome PC (delta-carbobenzloxy-D-lysine-L-prolyl-L-arginine-p-nitroanilide), obtained from Pentapharm Ltd.). […]

Chymotrypsin = target: T4, Chymotrypsin (Bos taurus, UniProt P00766); assay: Chymotrypsin IC50 assay; type: biochemical, bovine; settings: maximal concentration 2500 nM
T4 construct: bovine pancreatic a-chymotrypsin; purchased Worthington Biochemical Corp. CDI; host or cells: bovine pancreas
Description: as §1, §2
Chymotrypsin catalytic activity was determined using the chromogenic substrate, S-2586 (methoxy-succinyl-L-arginine-L-prolyl-L-tyrosyl-p-nitroanilide), which was obtained from DiaPharma Group. […]

Trypsin = target: T5, Trypsin (Bos taurus, UniProt P00760); assay: Trypsin IC50 assay; type: biochemical, bovine; settings: 30-minute incubation
T5 construct: bovine pancreatic trypsin; purchased Worthington Biochemical Corp. TRL3; host or cells: bovine pancreas
T5 sequence (P00760 24-246): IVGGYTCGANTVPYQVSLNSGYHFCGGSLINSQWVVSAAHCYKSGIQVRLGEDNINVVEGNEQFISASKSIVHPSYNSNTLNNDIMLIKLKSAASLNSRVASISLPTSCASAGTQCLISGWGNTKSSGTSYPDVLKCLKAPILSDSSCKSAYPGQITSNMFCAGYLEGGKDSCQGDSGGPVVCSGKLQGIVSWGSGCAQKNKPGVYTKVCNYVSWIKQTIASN
Description: as §1, §2
Trypsin catalytic activity was determined using the chromogenic substrate, S-2222 (benzoyl-L-isoleucine-L-glutamic acid-(gamma-methyl ester)-L-arginine-p-nitroanilide), which was obtained from DiaPharma Group. […]

[3] = in words; cited from earlier work
[4] = test system: atherosclerotic rabbit femoral artery; settings: in words; cited from earlier work
[5] = test system: thrombotic occlusion in rat carotid artery; settings: dose that prevents complete thrombotic occlusion in 50% of animals, FeCl3 model; cited from earlier work
thrombin = settings: in words; cited from earlier work
[6] = in words; cited from earlier work; remark: listed apart in the source
[7] = in words; cited from earlier work; remark: listed apart in the source

| Ki (human alpha-thrombin [1]) [nM] | IC50 (human alpha-thrombin [2]) [nM] | IC50 (rt-PA) [nM] | IC50 (Plasmin) [nM] | IC50 (aPC) [nM] | IC50 (Chymotrypsin) [nM] | IC50 (Trypsin) [nM] | Compound | selectivity of thrombin inhibition (thrombin) | further results |
| --- | --- | --- | --- | --- | --- | --- | --- | --- | --- |
| 1 | 1.44 | > 2500 | > 2500 | > 2500 | > 2500 | 1810 | COc1c(NS(=O)(=O)Cc2ccccc2)ccc(C)c1CC(=O)N[C@H](C=O)CCCN=C(N)N [Example 14, N-[2-methoxy-3-(N-benzylsulfonylamino)-6-methylphenylacetyl]-L-argininal] | – | – |
| – | – | – | – | – | – | – | Hirudin | – | antithrombotic / anticoagulant effect [3]: potent antithrombotic agent in vivo; inhibition of smooth muscle proliferation and associated restenosis [4]: effectively inhibit smooth muscle proliferation and the associated restenosis |
| – | – | – | – | – | – | – | CC1CNc2c(cccc2S(=O)(=O)N[C@@H](CCCNC(=N)N)C(=O)N2CC[C@@H](C)C[C@@H]2C(=O)O)C1 (stereo partly drawn) [Argatroban, 2R,4R-4-methyl-1-[N-2-(3-methyl-1,2,3,4-tetrahydro-8-quinolinesulfonyl)-L-argininy]-2-piperdinecarboxylic acid] | – | ED50 [5]: 3.8 mg/kg |
| – | – | – | – | – | – | – | CS(=O)(=O)O.CS(=O)(=O)O.N=C(N)Nc1ccc(C(=O)Oc2ccc3cc(C(=N)N)ccc3c2)cc1 [FUT 175, 6-amidino-2-naphthyl-4-guanidinobenzoate dimethanesulfonate] | non-selective | – |
| – | – | – | – | – | – | – | N=C(N)c1ccc(CC(=O)C(=O)O)cc1 [APPA, 4-amidinophenylpyruvic acid] | non-selective, inhibiting trypsin, plasmin and kallikrein | toxicity [6]: low toxicity; pharmacokinetics [7]: favourable pharmacokinetics |
| 0.79 | 3.19 | > 2500 | > 2500 | > 2500 | > 2500 | 1140 | Cc1ccc(NS(=O)(=O)Cc2ccccc2)c(O)c1CC(=O)N[C@H](C=O)CCCN=C(N)N [Example 11, N-[2-hydroxy-3-(N-benzylsulfonylamino)-6-methylphenylacetyl]-L-argininal] | – | – |

Source: patent US6011047A, “Substituted 3-amino-2-hydroxyphenylacetamide derivatives as enzyme inhibitors” (priority 1997, dated 2000)
